Structures can show the parent of a compound that is named as a salt. Where two headings read alike, the source gives them in different places.
System: behaviors of compound-treated mice
Assay: Neuropharmacological Assay (SmartCube)
Type: in vivo
Details: for minimal effective dose: Mus musculus, ip, 0.25 h, dose having 50% or more total activity in SmartCube, read-out: MED (minimal effective dose)
Outline: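 Behavioral signatures were captured automatically by video, and each drug class received a probability for the best of three i.p. doses given 15 min pre-test (vehicle: Pharmasolve/PEG/propylene glycol). Potency is given as MED, the lowest mpk dose (typically 0.3–30) reaching 50% or more total activity.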

[1] = i.p. 15 min before behavioral test, most efficacious dose(s) of 3 doses
[2] = SmartCube, i.p. 15 min before test, most efficacious dose(s)

| SMILES | minimal effective dose (i.p.) | AD: ADHD (probability that activity matches class) [1] | AG: analgesic (probability that activity matches class) [1] | AX: anxiolytic (probability that activity matches class) [1] | CE: cognitive enhancer (probability that activity matches class) [1] | DP: anti-depressant (probability that activity matches class) [1] | MS: mood stabilizer (probability that activity matches class) [1] | PS: anti-psychotic (probability that activity matches class) [1] | SD: sedative hypnotic (probability that activity matches class) [1] | UN: uncharacterized CNS activity (probability that activity matches class) [1] | minimal effective dose | AD: ADHD (probability that activity matches class) [2] | AG: analgesic (probability that activity matches class) [2] | AX: anxiolytic (probability that activity matches class) [2] | CE: cognitive enhancer (probability that activity matches class) [2] | DP: anti-depressant (probability that activity matches class) [2] | MS: mood stabilizer (probability that activity matches class) [2] | PS: anti-psychotic (probability that activity matches class) [2] | SD: sedative hypnotic (probability that activity matches class) [2] | UN: uncharacterized CNS activity (probability that activity matches class) [2] |
| --- | --- | --- | --- | --- | --- | --- | --- | --- | --- | --- | --- | --- | --- | --- | --- | --- | --- | --- | --- | --- |
| NC[C@@H]1OCCc2c(-c3ccno3)cccc21 (single isomer, unassigned) [Compound 92, hydrochloride salt] | ≤ 3 mg/kg | ++ (5% ≤ ++ <25%) | + (LOQ ≤ + <5%) | ++ (5% ≤ ++ <25%) | + (LOQ ≤ + <5%) | ++ (5% ≤ ++ <25%) | + (LOQ ≤ + <5%) | + (LOQ ≤ + <5%) | ++ (5% ≤ ++ <25%) | +++ (25% ≤ +++ <50%) |  |  |  |  |  |  |  |  |  |  |
| NCC1OCCc2c(-c3cnoc3)cccc21 (stereo not shown) [Compound 64, (5-(Isoxazol-4-yl)isochroman-1-yl)methanamine hydrochloride salt] | 3 to 10 mg/kg | + (LOQ ≤ + <5%) | + (LOQ ≤ + <5%) | + (LOQ ≤ + <5%) | + (LOQ ≤ + <5%) | ++++ (50% ≤ ++++) | + (LOQ ≤ + <5%) | + (LOQ ≤ + <5%) | + (LOQ ≤ + <5%) | ++ (5% ≤ ++ <25%) |  |  |  |  |  |  |  |  |  |  |
| NC[C@@H]1OCCc2c(-c3ccon3)cccc21 (single isomer, unassigned) [Compound 88, hydrochloride salt] | 10 to 30 mg/kg | + (LOQ ≤ + <5%) | + (LOQ ≤ + <5%) | ++ (5% ≤ ++ <25%) | + (LOQ ≤ + <5%) | ++ (5% ≤ ++ <25%) | + (LOQ ≤ + <5%) | + (LOQ ≤ + <5%) | + (LOQ ≤ + <5%) | + (LOQ ≤ + <5%) |  |  |  |  |  |  |  |  |  |  |
| NC[C@@H]1OCCc2c(-c3cocn3)cccc21 [Compound 100, (R)-(5-(oxazol-4-yl)isochroman-1-yl)methanamine HCl salt] | 3 to 10 mg/kg | + (LOQ ≤ + <5%) | + (LOQ ≤ + <5%) | ++ (5% ≤ ++ <25%) | + (LOQ ≤ + <5%) | + (LOQ ≤ + <5%) | + (LOQ ≤ + <5%) | + (LOQ ≤ + <5%) | + (LOQ ≤ + <5%) | ++++ (50% ≤ ++++) |  |  |  |  |  |  |  |  |  |  |
| CNC[C@H]1OCCc2c(-c3ncc[nH]3)cccc21 [Compound 111, (S)-1-(5-(1H-Imidazol-2-yl)isochroman-1-yl)-N-methylmethanamine hydrochloride salt] | 10 to 30 mg/kg | + (LOQ ≤ + <5%) | + (LOQ ≤ + <5%) | ++ (5% ≤ ++ <25%) | + (LOQ ≤ + <5%) | + (LOQ ≤ + <5%) | + (LOQ ≤ + <5%) | + (LOQ ≤ + <5%) | + (LOQ ≤ + <5%) | + (LOQ ≤ + <5%) |  |  |  |  |  |  |  |  |  |  |
| CNC[C@H]1OCCc2c1cccc2-n1cccn1 [Compound 187, (S)-1-(5-(1H-pyrazol-1-yl)isochroman-1-yl)-N-methylmethanamine] |  |  |  |  |  |  |  |  |  |  | 3 to 10 mg/kg | ++ (5% ≤ ++ <25%) | + (LOQ ≤ + <5%) | + (LOQ ≤ + <5%) | + (LOQ ≤ + <5%) | ++++ (50% ≤ ++++) | + (LOQ ≤ + <5%) | + (LOQ ≤ + <5%) | + (LOQ ≤ + <5%) | + (LOQ ≤ + <5%) |
| CNC[C@@H]1OCc2c(-c3ccncc3)cccc21 (single isomer, unassigned) [Compound 39, hydrochloride salt] | ≤ 3 mg/kg | ++ (5% ≤ ++ <25%) | + (LOQ ≤ + <5%) | ++ (5% ≤ ++ <25%) | + (LOQ ≤ + <5%) | ++++ (50% ≤ ++++) | + (LOQ ≤ + <5%) | + (LOQ ≤ + <5%) | ++ (5% ≤ ++ <25%) | + (LOQ ≤ + <5%) |  |  |  |  |  |  |  |  |  |  |
| Cc1cc(-c2cccc3c2CCO[C@H]3CN)ccn1 (single isomer, unassigned) [Compound 122, hydrochloride salt] | 10 to 30 mg/kg | + (LOQ ≤ + <5%) | + (LOQ ≤ + <5%) | ++ (5% ≤ ++ <25%) | + (LOQ ≤ + <5%) | + (LOQ ≤ + <5%) | + (LOQ ≤ + <5%) | + (LOQ ≤ + <5%) | + (LOQ ≤ + <5%) | + (LOQ ≤ + <5%) |  |  |  |  |  |  |  |  |  |  |
| NC[C@H]1OCCc2c(-c3cocn3)cccc21 [Compound 101, (S)-(5-(oxazol-4-yl)isochroman-1-yl)methanamine HCl salt] | 3 to 10 mg/kg | ++ (5% ≤ ++ <25%) | + (LOQ ≤ + <5%) | ++ (5% ≤ ++ <25%) | + (LOQ ≤ + <5%) | ++ (5% ≤ ++ <25%) | + (LOQ ≤ + <5%) | + (LOQ ≤ + <5%) | + (LOQ ≤ + <5%) | ++ (5% ≤ ++ <25%) |  |  |  |  |  |  |  |  |  |  |
| c1cc(-c2ccncc2)c2c(c1)[C@H](CNC1CC1)OCC2 (single isomer, unassigned) [Compound 180, hydrochloride salt] | 3 to 10 mg/kg | + (LOQ ≤ + <5%) | + (LOQ ≤ + <5%) | ++ (5% ≤ ++ <25%) | + (LOQ ≤ + <5%) | ++ (5% ≤ ++ <25%) | + (LOQ ≤ + <5%) | + (LOQ ≤ + <5%) | + (LOQ ≤ + <5%) | ++++ (50% ≤ ++++) |  |  |  |  |  |  |  |  |  |  |
| CNC[C@H]1OCCCc2c(-c3cncs3)cccc21 (single isomer, unassigned) [Compound 169, hydrochloride salt] | 10 to 30 mg/kg | + (LOQ ≤ + <5%) | + (LOQ ≤ + <5%) | + (LOQ ≤ + <5%) | + (LOQ ≤ + <5%) | + (LOQ ≤ + <5%) | + (LOQ ≤ + <5%) | + (LOQ ≤ + <5%) | + (LOQ ≤ + <5%) | + (LOQ ≤ + <5%) |  |  |  |  |  |  |  |  |  |  |
| CNC[C@@H]1OCCc2c(-c3ncco3)cccc21 [Compound 104, (R)—N-Methyl-1-(5-(oxazol-2-yl)isochroman-1-yl)methanamine hydrochloride salt] | > 30 mg/kg | + (LOQ ≤ + <5%) | + (LOQ ≤ + <5%) | ++ (5% ≤ ++ <25%) | + (LOQ ≤ + <5%) | ++ (5% ≤ ++ <25%) | + (LOQ ≤ + <5%) | + (LOQ ≤ + <5%) | + (LOQ ≤ + <5%) | + (LOQ ≤ + <5%) |  |  |  |  |  |  |  |  |  |  |
| NC[C@H]1OCCCc2c(-c3ccncn3)cccc21 (single isomer, unassigned) [Compound 167] | 10 to 30 mg/kg | + (LOQ ≤ + <5%) | + (LOQ ≤ + <5%) | + (LOQ ≤ + <5%) | + (LOQ ≤ + <5%) | + (LOQ ≤ + <5%) | + (LOQ ≤ + <5%) | + (LOQ ≤ + <5%) | + (LOQ ≤ + <5%) | + (LOQ ≤ + <5%) |  |  |  |  |  |  |  |  |  |  |
